Data on one molecule can be found in US10335403B2, “Niacin formulation” (Zeenar Enterprises Pty Ltd., priority 2013, dated 2019).

For orientation: inhibition means the change of the read-out against control, counted positive when it falls.

The experiment deals with PGE2 production in 3T3 cells. The experiment is described as follows: PGE2 inhibition in 3T3 cells stimulated with calcium ionophore (Cayman PGE2 monoclonal EIA kit). It counts as cell-based. The following applies: Mus musculus, NIH3T3, at 0.488 μg/mL, relative to control cells not exposed, read-out: highest PGE2 inhibition observed. As for the experimental part: As is known in the art, prostaglandin E2 (PGE2) activity can be used to measure anti-inflammatory activity of a substance. PGE2 inhibitory activity can be measured by the ability of test samples to inhibit PGE2 production in 3T3 cells when stimulated with calcium ionophore. As understood in the art, aspirin and ibuprofen may be included in the assay as a positive control. The in vitro production of PGE2 from 3T3 cells was measured using the Cayman Chemical Prostaglandin E2 monoclonal EIA (Enzyme Immuno Assay) kit. The cells were exposed to extracts derived from dunder and molasses and stimulated with calcium ionophore. The cell supernatants were then assayed for PGE2 production. The cell cytotoxicity of the samples was tested against 3T3 cells to confirm that the observed PGE2 inhibition was not due to cell cytotoxicity. Aspirin and ibuprofen were used as positive controls.

For the molecule `CC(C)Cc1ccc(C(C)C(=O)O)cc1` (stereo not shown) [ibuprofen], the inhibition at 0.488 µg/mL was found to be 42.1%.
